According to ChEMBL document CHEMBL3880430, “Arginine derivatives with NP-1 antagonistic activity” (2012):
Calls of active or inactive are those of the source. The calls are words filed in the database; no cut-off is given here.

Biological target: Neuropilin-1 (Homo sapiens) (UniProt O14786)
Experiment: Inhibition of neuropilin-1 in human A549 cells assessed as decrease in cell migration at 10 to 100 uM after 4 hrs by trans-well assay
Type: cell-based
Conditions: not given

Sequence of Neuropilin-1 (Homo sapiens) (O14786 whole entry): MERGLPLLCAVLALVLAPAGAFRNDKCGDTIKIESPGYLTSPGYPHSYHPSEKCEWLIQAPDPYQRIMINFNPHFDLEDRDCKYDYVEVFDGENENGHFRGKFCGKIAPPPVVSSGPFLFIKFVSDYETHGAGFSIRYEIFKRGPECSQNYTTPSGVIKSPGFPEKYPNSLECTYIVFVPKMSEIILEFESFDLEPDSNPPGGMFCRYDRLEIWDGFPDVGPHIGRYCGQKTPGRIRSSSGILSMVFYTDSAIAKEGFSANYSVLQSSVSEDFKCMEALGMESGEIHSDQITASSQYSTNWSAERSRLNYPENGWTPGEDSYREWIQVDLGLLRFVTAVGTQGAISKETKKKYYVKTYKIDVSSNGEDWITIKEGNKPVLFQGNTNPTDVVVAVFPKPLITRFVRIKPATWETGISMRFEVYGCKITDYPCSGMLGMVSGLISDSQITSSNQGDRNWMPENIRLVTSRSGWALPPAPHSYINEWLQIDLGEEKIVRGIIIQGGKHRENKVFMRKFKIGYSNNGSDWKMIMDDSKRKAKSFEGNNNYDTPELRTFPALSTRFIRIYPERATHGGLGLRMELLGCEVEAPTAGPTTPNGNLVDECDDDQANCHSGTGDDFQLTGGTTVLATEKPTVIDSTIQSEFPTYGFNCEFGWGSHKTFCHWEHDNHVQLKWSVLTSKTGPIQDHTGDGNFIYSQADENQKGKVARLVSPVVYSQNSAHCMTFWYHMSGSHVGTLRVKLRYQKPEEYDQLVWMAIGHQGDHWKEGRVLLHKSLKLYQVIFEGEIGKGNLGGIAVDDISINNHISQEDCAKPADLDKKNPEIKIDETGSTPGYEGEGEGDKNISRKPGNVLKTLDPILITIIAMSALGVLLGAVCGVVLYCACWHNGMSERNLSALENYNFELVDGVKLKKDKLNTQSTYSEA

Row | Compound | inhibition
1 | N=C(N)NCCC[C@H](NC(=O)c1sccc1NS(=O)(=O)c1ccc(N)cc1)C(=O)O | Active

Biological target: Neuropilin-1 (Homo sapiens) (UniProt O14786)
Experiment: Inhibition of neuropilin-1 in human DU145 cells assessed as decrease in cell adhesion to extracellular matrix proteins at 10 to 100 uM after 1.5 hrs by calcein-AM dye based fluorescence assay
Conditions: DU-145

Row | Compound | inhibition
2 | N=C(N)NCCC[C@H](NC(=O)c1sccc1NS(=O)(=O)c1ccc(N)cc1)C(=O)O | Active

Biological target: Neuropilin-1 (Homo sapiens) (UniProt O14786)
Experiment: Inhibition of neuropilin-1 in human ACHN cells assessed as decrease in cell migration at 10 to 100 uM after 4 hrs by trans-well assay
Type: cell-based
Conditions: not given

Row | Compound | inhibition
3 | N=C(N)NCCC[C@H](NC(=O)c1sccc1NS(=O)(=O)c1ccc(N)cc1)C(=O)O | Active

Test system: not listed separately
Experiment: Cytotoxicity in human A549 cells assessed as decrease in cell viability after 44 hrs by XTT assay
Type: functional, cell-based
Conditions: A549, 44 h

Row | Compound | IC50 [µM]
4 | N=C(N)NC(=O)CC[C@H](NC(=O)c1sccc1NS(=O)(=O)c1ccccc1[N+](=O)[O-])C(=O)O | < 20
5 | Cc1cc(CNc2cccc(S(=O)(=O)Nc3ccsc3C(=O)N[C@@H](CCCNC(=N)N)C(=O)O)c2)n(C)n1 | < 20
6 | N=C(N)NCCC[C@H](NC(=O)c1sccc1NS(=O)(=O)c1cccc(C#CCN)c1)C(=O)O | < 20
7 | CN1CCOc2cc(-c3cc4c(c(S(=O)(=O)Nc5ccsc5C(=O)N[C@@H](CCCNC(=N)N)C(=O)O)c3)OCC4)cnc21 | < 20
8 | Cc1ccc2nsnc2c1S(=O)(=O)Nc1ccsc1C(=O)N[C@@H](CCCNC(=N)N)C(=O)O | < 20
9 | CC(=O)Nc1ccc(S(=O)(=O)Nc2ccsc2C(=O)N[C@@H](CCCNC(=N)N)C(=O)O)cc1 | < 20
10 | Cc1noc(C)c1-c1cc2c(c(S(=O)(=O)Nc3ccsc3C(=O)N[C@@H](CCCNC(=N)N)C(=O)O)c1)OCC2 | < 20
11 | Cc1nn(C)c(Cl)c1CNc1cccc(S(=O)(=O)Nc2ccsc2C(=O)N[C@@H](CCCNC(=N)N)C(=O)O)c1 | < 20
12 | N=C(N)NCCC[C@H](NC(=O)c1sccc1NS(=O)(=O)c1cccc(CCCN)c1)C(=O)O | < 20
13 | N=C(N)NCCC[C@H](NC(=O)c1sccc1NS(=O)(=O)c1cccc(NCc2ccccn2)c1)C(=O)O | < 20
14 | N=C(N)NCCC[C@H](NC(=O)c1sccc1NS(=O)(=O)c1cc2ccccc2o1)C(=O)O | < 20
15 | Cc1nc(CNc2cccc(S(=O)(=O)Nc3ccsc3C(=O)N[C@@H](CCCNC(=N)N)C(=O)O)c2)c(C)o1 | < 20
16 | N=C(N)NCCC[C@H](NC(=O)c1sccc1NS(=O)(=O)c1cc2ccccc2s1)C(=O)O | < 20
17 | N=C(N)NCCC[C@H](NC(=O)c1sccc1NS(=O)(=O)c1cccc(CCc2cccnc2)c1)C(=O)O | < 20
18 | N=C(N)NCCC[C@H](NC(=O)c1sccc1NS(=O)(=O)c1ccccc1N)C(=O)O | < 20
19 | N=C(N)NCCC[C@H](NC(=O)c1sccc1NS(=O)(=O)c1ccccc1[N+](=O)[O-])C(=O)O | < 20
20 | N=C(N)NCCC[C@H](NC(=O)c1sccc1NS(=O)(=O)c1cccc(N)c1)C(=O)O | < 20
21 | N=C(N)NCCC[C@H](NC(=O)c1sccc1NS(=O)(=O)c1ccc(N)cc1)C(=O)O | < 20
22 | Cc1noc(C)c1-c1cccc(S(=O)(=O)Nc2ccsc2C(=O)N[C@@H](CCCNC(=N)N)C(=O)O)c1 | < 20
